In paper PMC8018242, “AbhemC encoding porphobilinogen deaminase plays an important role in chlorophyll biosynthesis and function in albino Ananas comosus var. bracteatus leaves” (PeerJ, 2021):

Biological target: T1, AbHEMC (porphobilinogen deaminase, PBGD) (Ananas comosus, UniProt A0A1B2LUE6)
T1 construct: gene hemC; E. coli Rosetta-gami (DE3); about 45 kD on SDS-PAGE
Assay: in vitro PBGD activity assay (method of Lee et al. […])
Assay type: biochemical
Settings: recombinant fusion protein; substrate inferred from the named PBGD activity, assay conditions not given

T1 sequence (A0A1B2LUE6 entry or part of it): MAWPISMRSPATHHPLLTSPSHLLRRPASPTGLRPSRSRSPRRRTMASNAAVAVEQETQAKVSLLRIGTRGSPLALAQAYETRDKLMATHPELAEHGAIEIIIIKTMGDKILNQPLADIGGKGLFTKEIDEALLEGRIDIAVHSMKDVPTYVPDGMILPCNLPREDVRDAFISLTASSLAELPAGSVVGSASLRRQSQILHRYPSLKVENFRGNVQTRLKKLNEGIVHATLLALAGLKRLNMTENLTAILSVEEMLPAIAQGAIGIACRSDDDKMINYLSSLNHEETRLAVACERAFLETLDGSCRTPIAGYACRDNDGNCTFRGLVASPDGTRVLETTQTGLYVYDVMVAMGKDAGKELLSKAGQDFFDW

Compound: NCc1[nH]cc(CCC(=O)O)c1CC(=O)O [porphobilinogen]
- in vitro PBGD activity assay (method of Lee et al. 1992): in vitro analysis showed that the prokaryotic-expressed AbHEMC protein had PBGD activity
